The source of these data is patent US7550485B2, “Substituted N-heterocycle derivatives and methods of their use” (Wyeth, priority 2003, dated 2009).

By inhibition is commonly meant the share of the control response that was lost under treatment. As usually defined, the EC50 is the concentration giving half of the maximal effect.

The target of this assay is T1, hNET (Homo sapiens, UniProt P23975).
T1 construct: expressed in transfected cells
Put plainly: Norepinephrine (NE) uptake assay in MDCK-Net6 cells stably transfected with human hNET. The following applies: [3H]NE uptake; for inhibition at 1 µM: MDCK-Net6, 1 μM test compound; for EC50: test range 1 to 10,000 nM. It is filed as cell-based. How it is done:
MDCK-Net6 cells, stably transfected with human hNET (Pacholczyk, T., R. D. Blakely, and S. G. Amara, Nature, 1991, 350(6316): p. 350-4) were cultured in growth medium containing high glucose DMEM (Gibco, Cat. No. 11995), 10% FBS (dialyzed, heat-inactivated, US Bio-Technologies, Lot FBD1129HI) and 500 μg/ml G418 (Gibco, Cat. No. 10131). Cells were plated at 300,000/T75 flask and cells were split twice weekly. The JAR cell line (human placental choriocarcinoma) was purchased from ATCC (Cat. No. HTB-144). The cells were cultured in growth medium containing RPMI 1640 (Gibco, Cat. No. 72400), 10% FBS (Irvine, Cat. No. 3000), 1% sodium pyruvate (Gibco, Cat. No. 1136) and 0.25% glucose. Cells were plated at 250,000 cells/T75 flask and split twice weekly. For all assays, cells were plated in Wallac 96-well sterile plates (PerkinElmer, Cat. No. 3983498).
Norepinephrine (NE) Uptake Assay
On day 1, cells were plated at 3,000 cells/well in growth medium and maintained in a cell incubator (37° C., 5% CO2). On day 2, growth medium was replaced with 200 μl of assay buffer (25 mM HEPES; 120 mM NaCl; 5 mM KCl; 2.5 mM CaCl2; 1.2 mM MgSO4; 2 mg/ml glucose (pH 7.4, 37° C.)) containing 0.2 mg/ml ascorbic acid and 10 μM pargyline. Plates containing cells with […] of assay buffer were equilibrated for 10 minutes at 37° C. prior to addition of compounds. A stock solution of desipramine was prepared in DMSO (10 mM) and delivered to triplicate wells containing cells for a final test concentration of 1 μM. Data from these wells were used to define non-specific NE uptake (minimum NE uptake). Test compounds were prepared in DMSO (10 mM) and diluted in assay buffer according to test range (1 to 10,000 nM). Twenty-five microliters of assay buffer (maximum NE uptake) or test compound were added directly to triplicate wells containing cells in 200 μl of assay buffer. The cells in assay buffer with test compounds were incubated for 20 minutes at 37° C. To initiate the NE uptake, [^3H]NE diluted in assay buffer (120 nM final assay concentration) was delivered in 25 μl aliquots to each well and the plates were incubated for 5 minutes (37° C.). The reaction was terminated by decanting the supernatant from the plate. The plates containing cells were washed twice with 200 μl assay buffer (37° C.) to remove free radioligand. The plates were then inverted, left to dry for 2 minutes, then reinverted and air-dried for an additional 10 minutes. The cells were lysed in 25 μl of 0.25 N NaOH solution (4° C.), placed on a shake table and vigorously shaken for 5 minutes. After cell lysis, 75 μl of scintillation cocktail was added to each well and the plates were sealed with film tape. The plates were returned to the shake table and vigorously shaken for a minimum of 10 minutes to ensure adequate partitioning of organic and aqueous solutions. The plates were counted in a Wallac Microbeta counter (PerkinElmer) to collect the raw cpm data.
For each experiment, a data stream of cpm values collected from the Wallac Microbeta counter was downloaded to a Microsoft Excel statistical application program. Calculations of EC50 values were made using the transformed-both-sides logistic dose response program written by Wyeth Biometrics Department. The statistical program uses mean cpm values from wells representing maximum binding or uptake (assay buffer) and mean cpm values from wells representing minimum binding or uptake ((1 μM desipramine (hNET) or 1 μM paroxetine (hSERT)). Estimation of the EC50 value was completed on a log scale and the line was fit between the maximum and minimum binding or uptake values. All graphic data representation was generated by normalizing each data point to a mean percent based on the maximum and minimum binding or uptake values. The EC50 values reported from multiple experiments were calculated by pooling the raw data from each experiment and analyzing the pooled data as one experiment.

Counter-ions that a name gives are not always drawn.

T1 sequence (P23975 whole entry): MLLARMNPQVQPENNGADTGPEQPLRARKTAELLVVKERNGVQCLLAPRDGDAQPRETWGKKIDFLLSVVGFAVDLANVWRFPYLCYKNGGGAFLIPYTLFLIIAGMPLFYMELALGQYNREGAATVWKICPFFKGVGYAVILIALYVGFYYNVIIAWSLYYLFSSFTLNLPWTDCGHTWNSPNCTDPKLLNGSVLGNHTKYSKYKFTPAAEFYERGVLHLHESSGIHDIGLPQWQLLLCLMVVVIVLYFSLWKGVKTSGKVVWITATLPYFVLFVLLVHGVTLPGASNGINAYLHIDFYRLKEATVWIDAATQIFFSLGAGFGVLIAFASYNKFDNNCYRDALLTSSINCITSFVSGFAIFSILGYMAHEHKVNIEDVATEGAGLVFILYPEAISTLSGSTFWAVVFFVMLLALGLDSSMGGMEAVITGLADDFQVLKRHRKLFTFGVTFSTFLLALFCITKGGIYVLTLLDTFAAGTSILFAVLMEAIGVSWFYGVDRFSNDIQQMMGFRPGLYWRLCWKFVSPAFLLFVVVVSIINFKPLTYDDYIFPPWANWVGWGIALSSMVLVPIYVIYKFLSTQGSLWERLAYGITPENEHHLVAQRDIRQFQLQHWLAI

With `N[C@H]1CCCN(CC(c2ccc(OCc3ccccc3)c(Cl)c2)C2(O)CCCCC2)C1` (stereo partly drawn) [Example 196, 1-{2-[(3S)-3-aminopiperidin-1-yl]-1-[4-(benzyloxy)-3-chlorophenyl]ethyl}cyclohexanol dihydrochloride], 1 µM produced 92.2% inhibition. As for `OC1(C(CN2CCC(N3CCCC3)CC2)c2ccc(Cl)c(Cl)c2)CCCCC1` (stereo not shown) [Example 11, 1-[1-(3,4-dichlorophenyl)-2-(4-pyrrolidin-1-ylpiperidin-1-yl)ethyl]cyclohexanol dihydrochloride], the inhibition at 1 µM was determined as 91% and the EC50 amounted to 260 nM.

For the molecule `NC1CCN(CC(c2ccc(OCc3ccccc3)c(Cl)c2)C2(O)CCCCC2)CC1` (stereo not shown) [Example 428, 1-{2-(4-aminopiperidin-1-yl)-1-[4-(benzyloxy)-3-chlorophenyl]ethyl}cyclohexanol dihydrochloride], the inhibition at 1 µM was determined as 92% and the EC50 amounted to 110 nM. `N[C@H]1CCN(C[C@@H](c2cccc(Cl)c2)C2(O)CCCCC2)C1` [Example 388, 1-[(1 R)-2-[(3S)-3-aminopyrrolidin-1-yl]-1-(3-chlorophenyl)ethyl]cyclohexanol dihydrochloride] registered an EC50 of 85 nM. The molecule `CN(C)C1CCN(CC(c2cccc(Cl)c2)C2(O)CCCCC2)CC1` (stereo not shown) [Example 36, 1-{1-(3-chlorophenyl)-2-[4-(dimethylamino)piperidin-1-yl]ethyl}cyclohexanol dihydrochloride] had an inhibition at 1 µM of 57% and a concentration for a half-maximal effect (EC50) of 130 nM. In the case of `C[C@@H]1CCC(O)([C@H](CN2CCC(N3CCCCC3)CC2)c2cccc(OC(F)(F)F)c2)C1` (stereo partly drawn) [Example 398, (3R)-1-{2-(1.4′-bipiperidin-1′-yl)-1-[3-(trifluoromethoxy)phenyl]ethyl}-3-methylcyclopentanol dihydrochloride], 1 µM produced 0% inhibition. Same read-out and setting: the value for `CN(C)[C@H]1CCCN(CC(c2cccc(OC(F)(F)F)c2)C2(O)CCCCC2)C1` (stereo partly drawn) [Example 191, 1-{2-[(3S)-3-(dimethylamino)piperidin-1-yl]-1-[3-(trifluoromethoxy)phenyl]ethyl}cyclohexanol dihydrochloride] was 12.3%; that for `OC1(C(CN2CCC(N3CCCCC3)CC2)c2ccc(OC(F)(F)F)cc2)CCCCC1` (stereo not shown) [Example 284, 1-{2-(1,4′-bipiperidin-1′-yl)-1-[4-(trifluoromethoxy)phenyl]ethyl}cyclohexanol dihydrochloride] was 91.1%. `COc1ccc2cc(C(CN3CCC(N)CC3)C3(O)CCCCC3)ccc2c1` (stereo not shown) [Example 342, 1-[2-(4-aminopiperidin-1-yl)-1-(6-methoxy-2-naphthyl)ethyl]cyclohexanol dihydrochloride] yielded an inhibition at 1 µM of 59% and an EC50 of 390 nM. Molecule `CN(C)[C@H]1CCN(CC(c2cccc(C(F)(F)F)c2)C2(O)CCCCC2)C1` (stereo partly drawn) [Example 222, 1-{2-[(3S)-3-(dimethylamino)pyrrolidin-1-yl]-1-[3-(trifluoromethyl)phenyl]ethyl}cyclohexanol dihydrochloride] displayed an inhibition at 1 µM of 31.9%.

Turning to `CN[C@H]1CCN(CC(c2cccc(C(F)(F)F)c2)C2(O)CCCCC2)C1` (stereo partly drawn) [Example 220, 1-{2-[(3S)-3-(methylamino)pyrrolidin-1-yl]-1-[3-(trifluoromethyl)phenyl]ethyl}cyclohexanol dihydrochloride], the inhibition at 1 µM is 27.3%. On the same count and under the same terms, the value for `COc1ccc2scc(C(CN3CCC(N)CC3)C3(O)CCCCC3)c2c1` (stereo not shown) [Example 280, 1-[2-(4-aminopiperidin-1-yl)-1-(5-methoxy-1-benzothien-3-yl)ethyl]cyclohexanol dihydrochloride] was 18%; that for `CN[C@H]1CCCN(CC(c2ccc(OCc3ccccc3)c(Cl)c2)C2(O)CCCCC2)C1` (stereo partly drawn) [Example 195, 1-{1-[4-(benzyloxy)-3-chlorophenyl]-2-[(3S)-3-(methylamino)piperidin-1-yl]ethyl}cyclohexanol dihydrochloride] was 92%. For the molecule `CN(C)C1CCN(CC(c2cccc(Cl)c2)C2CCCC2)CC1` (stereo not shown) [Example 229, 1-[2-(3-chlorophenyl)-2-cyclopentylethyl]-N,N-dimethylpiperidin-4-amine dihydrochloride], the inhibition at 1 µM is 87.3%. On the same count and under the same terms, the value for `COc1ccc2cc(C(CN3CCC(N(C)C)CC3)C3(O)CCCCC3)ccc2c1` (stereo not shown) [Example 343, 1-[2-[4-(dimethylamino)piperidin-1-yl]-1-(6-methoxy-2-naphthyl)ethyl]cyclohexanol dihydrochloride] was 48%. With `CN(C)C1CCN(C[C@H](c2cccc(OC(F)(F)F)c2)C2(O)CCCCC2)CC1` [Example 360, 1-{(1S)-2-[4-(dimethylamino)piperidin-1-yl]-1-[3-(trifluoromethoxy)phenyl]ethyl}cyclohexanol dihydrochloride], at 1 µM the inhibition was 88% and the EC50 was 220 nM. For the molecule `NC1CCN(CC(c2cccc3ccccc23)C2(O)CCCCC2)CC1` (stereo not shown) [Example 54, 1-[2-(4-aminopiperidin-1-yl)-1-(1-naphthyl)ethyl]cyclohexanol dihydrochloride], the inhibition at 1 µM came to 39%. On to `OC1(C(CN2CCC(N3CCCC3)CC2)c2cccc(Br)c2)CCCCC1` (stereo not shown) [Example 7, 1-[1-(3-bromophenyl)-2-(4-pyrrolidin-1-ylpiperidin-1-yl)ethyl]cyclohexanol dihydrochloride], for which testing at 1 µM gave an inhibition of 96% and the EC50 came to 70 nM. Take `N[C@@H]1CCN(CC(c2cccc(OC(F)(F)F)c2)C2(O)CCCCC2)C1` (stereo partly drawn) [Example 386, 1-{2-[(3R)-3-aminopyrrolidin-1-yl]-1-[3-(trifluoromethoxy)phenyl]ethyl}cyclohexanol dihydrochloride]: at 30 µM the inhibition (MDCK-Net6, 30 μM test compound (stated in cell)) was 82%. `CN(C)[C@H]1CCN(CC(c2cccc(OC(F)(F)F)c2)C2(O)CCCCC2)C1` (stereo partly drawn) [Example 217, 1-{2-[(3S)-3-(dimethylamino)pyrrolidin-1-yl]-1-[3-(trifluoromethoxy)phenyl]ethyl}cyclohexanol dihydrochloride] gave an inhibition at 10 µM (MDCK-Net6, 10 μM test compound (stated in cell)) of 84.2%. Molecule `N[C@H]1CCN(CC(c2cccc(OC(F)(F)F)c2)C2(O)CCCCC2)C1` (stereo partly drawn) [Example 216, 1-{2-[(3S)-3-aminopyrrolidin-1-yl]-1-[3-(trifluoromethoxy)phenyl]ethyl}cyclohexanol dihydrochloride] showed an inhibition at 1 µM of 38.9%. As to `COc1ccc2cc(C(CN3CCC(N4CCCCC4)CC3)C3(O)CCCCC3)ccc2c1` (stereo not shown) [Example 346, 1-[2-(1,4′-bipiperidin-1′-yl)-1-(6-methoxy-2-naphthyl)ethyl]cyclohexanol dihydrochloride], the inhibition at 1 µM came to 81% and the midpoint of the response, the EC50, lay at 190 nM.

The molecule `N[C@@H]1CCCN(CC(c2ccc(OCc3ccccc3)c(Cl)c2)C2(O)CCCCC2)C1` (stereo partly drawn) [Example 193, 1-{2-[(3R)-3-aminopiperidin-1-yl]-1-[4-(benzyloxy)-3-chlorophenyl]ethyl}cyclohexanol dihydrochloride] showed an inhibition at 1 µM of 87.2%.

On to `CN[C@H]1CCN(CC(c2cccc(OC(F)(F)F)c2)C2(O)CCCCC2)C1` (stereo partly drawn) [Example 215, 1-{2-[(3S)-3-(methylamino)pyrrolidin-1-yl]-1-[3-(trifluoromethoxy)phenyl]ethyl}cyclohexanol dihydrochloride], for which the inhibition at 1 µM came to 30.2%.
